Measurements: ChEMBL document CHEMBL3797052 (Eur J Med Chem, 2016)

How the values were obtained:
Type in all cases: functional
[1] = Antiproliferative activity against human HOP92 cells assessed as cell growth at 10^-5 M after 48 hrs by sulforhodamine B assay; settings: HOP-92, 48 h, read-out: Activity
[2] = tested on: MDA-MB-231; assay: Antiproliferative activity against human MDA-MB-231 cells assessed as cell growth at 10^-5 M after 48 hrs by sulforhodamine B assay; settings: MDA-MB-231, 48 h, read-out: Activity
[3] = Antiproliferative activity against human OVCAR3 cells assessed as cell growth at 10^-5 M after 48 hrs by sulforhodamine B assay; settings: OVCAR-3, 48 h, read-out: Activity
[4] = Antiproliferative activity against human TK10 cells assessed as cell growth at 10^-5 M after 48 hrs by sulforhodamine B assay; settings: TK-10, 48 h, read-out: Activity
[5] = Antiproliferative activity against human RXF393 cells assessed as cell growth at 10^-5 M after 48 hrs by sulforhodamine B assay; settings: RXF 393, 48 h, read-out: Activity
[6] = tested on: MDA-MB-435; assay: Antiproliferative activity against human MDA-MB-435 cells assessed as cell growth at 10^-5 M after 48 hrs by sulforhodamine B assay; settings: MDA-MB-435, 48 h, read-out: Activity
[7] = tested on: NCI-H460; assay: Antiproliferative activity against human NCI-H460 cells assessed as cell growth at 10^-5 M after 48 hrs by sulforhodamine B assay; settings: NCI-H460, 48 h, read-out: Activity
[8] = tested on: HT-29; assay: Antiproliferative activity against human HT-29 cells assessed as cell growth at 10^-5 M after 48 hrs by sulforhodamine B assay; settings: HT-29, 48 h, read-out: Activity
[9] = tested on: SR; assay: Antiproliferative activity against human SR cells assessed as cell growth at 10^-5 M after 48 hrs by sulforhodamine B assay; settings: read-out: Activity
[10] = tested on: A498; assay: Antiproliferative activity against human A498 cells assessed as cell growth at 10^-5 M after 48 hrs by sulforhodamine B assay; settings: A498, 48 h, read-out: Activity
[11] = tested on: A549; assay: Antiproliferative activity against human A549/ATCC cells assessed as cell growth at 10^-5 M after 48 hrs by sulforhodamine B assay; settings: A549, 48 h, read-out: Activity
[12] = Antiproliferative activity against human OVCAR5 cells assessed as cell growth at 10^-5 M after 48 hrs by sulforhodamine B assay; settings: OVCAR-5, 48 h, read-out: Activity
[13] = tested on: SK-MEL-28; assay: Antiproliferative activity against human SK-MEL-28 cells assessed as cell growth at 10^-5 M after 48 hrs by sulforhodamine B assay; settings: SK-MEL-28, 48 h, read-out: Activity
[14] = Antiproliferative activity against human OVCAR8 cells assessed as cell growth at 10^-5 M after 48 hrs by sulforhodamine B assay; settings: OVCAR-8, 48 h, read-out: Activity
[15] = Antiproliferative activity against human IGROV1 cells assessed as cell growth at 10^-5 M after 48 hrs by sulforhodamine B assay; settings: IGROV-1, 48 h, read-out: Activity
[16] = tested on: T47D; assay: Antiproliferative activity against human T47D cells assessed as cell growth at 10^-5 M after 48 hrs by sulforhodamine B assay; settings: read-out: Activity
[17] = Antiproliferative activity against human LOXIMVI cells assessed as cell growth at 10^-5 M after 48 hrs by sulforhodamine B assay; settings: LOX IMVI, read-out: Activity
[18] = tested on: MCF7; assay: Antiproliferative activity against human MCF7 cells assessed as cell growth at 10^-5 M after 48 hrs by sulforhodamine B assay; settings: MCF7, 48 h, read-out: Activity
[19] = Antiproliferative activity against human HCC2998 cells assessed as cell growth at 10^-5 M after 48 hrs by sulforhodamine B assay; settings: HCC 2998, 48 h, read-out: Activity
[20] = tested on: SK-MEL-5; assay: Antiproliferative activity against human SK-MEL-5 cells assessed as cell growth at 10^-5 M after 48 hrs by sulforhodamine B assay; settings: SK-MEL-5, 48 h, read-out: Activity
[21] = tested on: 786-0; assay: Antiproliferative activity against human 786-0 cells assessed as cell growth at 10^-5 M after 48 hrs by sulforhodamine B assay; settings: 786-0, 48 h, read-out: Activity
[22] = tested on: KM12; assay: Antiproliferative activity against human KM12 cells assessed as cell growth at 10^-5 M after 48 hrs by sulforhodamine B assay; settings: KM12, 48 h, read-out: Activity
[23] = Antiproliferative activity against human Caki1 cells assessed as cell growth at 10^-5 M after 48 hrs by sulforhodamine B assay; settings: CAKI-1, 48 h, read-out: Activity
[24] = Antiproliferative activity against human HL-60(TB) cells assessed as cell growth at 10^-5 M after 48 hrs by sulforhodamine B assay; settings: HL-60, 48 h, read-out: Activity
[25] = Antiproliferative activity against human UACC62 cells assessed as cell growth at 10^-5 M after 48 hrs by sulforhodamine B assay; settings: UACC-62, 48 h, read-out: Activity
[26] = tested on: CCRF-CEM; assay: Antiproliferative activity against human CCRF-CEM cells assessed as cell growth at 10^-5 M after 48 hrs by sulforhodamine B assay; settings: read-out: Activity
[27] = Antiproliferative activity against human UACC257 cells assessed as cell growth at 10^-5 M after 48 hrs by sulforhodamine B assay; settings: UACC-257, 48 h, read-out: Activity

## CNC(=O)c1cc(Oc2ccc3nc(NC(=O)c4ccc5ncccc5c4)sc3c2)ccn1
[1]
  growth at 10 µM: 110%
[2]
  growth at 10 µM: 98.6%
[3]
  growth at 10 µM: 98.9%
[4]
  growth at 10 µM: 90.5%
[5]
  growth at 10 µM: 109%
[6]
  growth at 10 µM: 91.6%
[7]
  growth at 10 µM: 98.6%
[8]
  growth at 10 µM: 69.9%
[9]
  growth at 10 µM: 88.8%
[10]
  growth at 10 µM: 88.3%
[11]
  growth at 10 µM: 76.5%
[12]
  growth at 10 µM: 106%
[13]
  growth at 10 µM: 101%
[14]
  growth at 10 µM: 100%
[15]
  growth at 10 µM: 93.3%
[16]
  growth at 10 µM: 51.3%
[17]
  growth at 10 µM: 99.6%
[18]
  growth at 10 µM: 88%
[19]
  growth at 10 µM: 106%
[20]
  growth at 10 µM: 86.4%
[21]
  growth at 10 µM: 98.4%
[22]
  growth at 10 µM: 101%
[23]
  growth at 10 µM: 89.9%
[24]
  growth at 10 µM: 87.5%
[25]
  growth at 10 µM: 94.9%
[26]
  growth at 10 µM: 91%
[27]
  growth at 10 µM: 93.1%

## CNC(=O)c1cc(Oc2ccc3nc(NC(=O)Nc4ccc(C(F)(F)F)cc4)sc3c2)ccn1
[1]
  growth at 10 µM: 74.4%
[2]
  growth at 10 µM: 63.5%
[3]
  growth at 10 µM: 24%
[4]
  growth at 10 µM: 55.3%
[5]
  growth at 10 µM: 85.5%
[6]
  growth at 10 µM: 40.9%
[7]
  growth at 10 µM: 33.4%
[8]
  growth at 10 µM: 78.4%
[9]
  growth at 10 µM: 70.6%
[10]
  growth at 10 µM: 98.8%
[11]
  growth at 10 µM: 1.79%
[12]
  growth at 10 µM: 93.9%
[13]
  growth at 10 µM: 68.9%
[14]
  growth at 10 µM: 48.5%
[15]
  growth at 10 µM: 70.9%
[16]
  growth at 10 µM: 44.8%
[17]
  growth at 10 µM: 48.1%
[18]
  growth at 10 µM: 42%
[19]
  growth at 10 µM: 104%
[20]
  growth at 10 µM: 56.9%
[21]
  growth at 10 µM: 35.5%
[22]
  growth at 10 µM: 65%
[23]
  growth at 10 µM: 92%
[24]
  growth at 10 µM: 120%
[25]
  growth at 10 µM: 56%
[26]
  growth at 10 µM: 68.1%
[27]
  growth at 10 µM: 86.7%

## CNC(=O)c1cc(Oc2ccc3nc(NC(=O)c4ccc5c(c4)OCCO5)sc3c2)ccn1
[1]
  growth at 10 µM: 93.5%
[2]
  growth at 10 µM: 101%
[3]
  growth at 10 µM: 101%
[4]
  growth at 10 µM: 105%
[5]
  growth at 10 µM: 102%
[6]
  growth at 10 µM: 98.5%
[7]
  growth at 10 µM: 104%
[8]
  growth at 10 µM: 71.3%
[9]
  growth at 10 µM: 88.3%
[10]
  growth at 10 µM: 95.1%
[11]
  growth at 10 µM: 98.8%
[12]
  growth at 10 µM: 99.1%
[13]
  growth at 10 µM: 103%
[14]
  growth at 10 µM: 100%
[15]
  growth at 10 µM: 99.5%
[16]
  growth at 10 µM: 92.1%
[17]
  growth at 10 µM: 97.8%
[18]
  growth at 10 µM: 90.3%
[19]
  growth at 10 µM: 103%
[20]
  growth at 10 µM: 95.8%
[21]
  growth at 10 µM: 97.3%
[22]
  growth at 10 µM: 95.3%
[23]
  growth at 10 µM: 97.7%
[24]
  growth at 10 µM: 93.7%
[25]
  growth at 10 µM: 102%
[26]
  growth at 10 µM: 98.4%
[27]
  growth at 10 µM: 95%

## CNC(=O)c1cc(Oc2ccc3nc(NC(=O)Nc4ccc(Cl)cc4)sc3c2)ccn1
[1]
  growth at 10 µM: 63.3%
[2]
  growth at 10 µM: 34.4%
[3]
  growth at 10 µM: 48.8%
[4]
  growth at 10 µM: 62.3%
[5]
  growth at 10 µM: 50.8%
[6]
  growth at 10 µM: 64.1%
[7]
  growth at 10 µM: 64.3%
[8]
  growth at 10 µM: 68.8%
[9]
  growth at 10 µM: 42.7%
[10]
  growth at 10 µM: 117%
[11]
  growth at 10 µM: 44.1%
[12]
  growth at 10 µM: 92.3%
[14]
  growth at 10 µM: 57.2%
[15]
  growth at 10 µM: 83.6%
[16]
  growth at 10 µM: 44%
[17]
  growth at 10 µM: 51.6%
[18]
  growth at 10 µM: 69.5%
[19]
  growth at 10 µM: 86.5%
[20]
  growth at 10 µM: 73.3%
[21]
  growth at 10 µM: 75.3%
[22]
  growth at 10 µM: 70%
[23]
  growth at 10 µM: 94.7%
[24]
  growth at 10 µM: 98.9%
[26]
  growth at 10 µM: 83.2%
